Assays:
EMX1 locus [1] = experiment: Surveyor cleavage assay at the EMX1 locus in HEK293 cells; type: cell-based, human; conditions: for switching ratio: harvested 96 hours after transfection
Protocol: FIG. 29|Effect of enzyme dosage on the level of background activity, shown as gel images. Different amounts of an iCas-bearing plasmid were transfected together with an EMX1-targeting sgRNA into HEK293 cells. These cells were harvested 96 hours after transfection for the Surveyor cleavage assay. DNA modification was clearly observed when 1 μg of plasmid was utilised, even in the absence of the inducer. […] The switching ratio was improved from 2.83 to 4.16 and 7.96 respectively. […] Arrows indicate the height of the expected cleavage bands.

EMX1 locus [2] = experiment: Illumina deep sequencing of INDELs at the EMX1 locus in HEK293 cells; type: cell-based, human; conditions: for time at which leaky activity was first detected: without 4-hydroxytamoxifen (0 nM)
FANCF locus = experiment: Surveyor assay, genome modification at the FANCF locus in HEK293 cells; type: cell-based, human; conditions: for cleavage bands with 4HT: 100 nM or 1000 nM 4HT for 24 hours
Protocol: FIG. 16|Genome modification at the FANCF locus in HEK293 cells, the data represented as images showing the results and the concentration of gene induction. 24 hours after transfection with Cas9 variant 27, 29, or 30, the cells were either harvested immediately (0 hour time point) or were exposed to 0 nM, 100 nM or 1000 nM 4HT for another 24 hours before genomic DNA was isolated and analysed by the Surveyor assay. Arrows indicate the expected cleavage bands. […] Furthermore, the leakiness in editing activity became more pronounced over time, as indicated by the increase in INDEL frequency from 2.5% to 7.7% for variant 27 and from 2.9% to 3.5% for variant 29.
At 24 hours after transfection with a FANCF-targeting plasmid, cells were treated with or without tamoxifen for another 24 hours before genomic DNA was isolated and analysed by the Surveyor assay (FIG. 10).

[3] = test system: EMX1 and ADAR1 genomic loci; experiment: Multiplex genome editing, Surveyor assay; type: cell-based, human
Protocol: Besides single gene targeting, the ability of iCas to perform multiplex genome engineering was compared with that of intein-Cas9 or split-Cas9. HEK293 cells were co-transfected with a sgRNA targeting EMX1 and another sgRNA targeting a coding exon of ADAR1 (ADAR), and subsequently the extent of genome modification was analysed by the Surveyor assay.

β-catenin = β-catenin transcript (qRT-PCR) and protein (Western blot) levels; type: cell-based, human; conditions: inducer 6 hours, harvested after another 72 hours
Protocol: Subsequently, they were harvested for analysis after another 72 hours. […] Error bars reflect the standard deviation from at least three biological replicates.
Proteins from whole cell lysates, nuclear fractions, and cytosolic fractions were loaded in equal amounts for SDS PAGE and then transferred onto a nitrocellulose membrane for western blot. The primary antibodies used were α-V5 (Life Technologies, 1:8000 dilution), α-3PGDH (Santa Cruz, 1:1000 dilution), and α-total histone H3 (Abcam, 1:10000 dilution). Primary antibodies were diluted in TBST+5% milk and incubated overnight at 4° C. Secondary antibodies were used at a 1:2500 dilution in TBST+5% milk. Membranes were exposed after addition of WesternBright Sirius HRP substrate (Advansta).

WAS locus and ASXL2 = experiment: Toggling of iCas activity, Surveyor assay; type: cell-based, human
Protocol: Subsequently, the possibility of toggling the activity of iCas was explored (FIG. 25b). After 1 μM 4-hydroxytamoxifen treatment of HEK293 cells co-transfected with iCas and a first sgRNA targeting the WAS locus, the inducer was removed and 72 hours waiting time was allowed to pass, thereby allowing nuclear-localized iCas protein to exit the nucleus before introducing a second sgRNA targeting a coding exon of ASXL2. The cells were then either treated with 4-hydroxytamoxifen a second time or left untreated.

HEK293-iCas cells = experiment: Immunofluorescence localization of iCas in the stable line; type: cell-based, human
Protocol: FIG. 6|Toggling the activity of iCas on and off (a,b) Immunofluorescence images (a) and quantification (b) of iCas in HEK293-iCas cells either untreated (N.A.) or treated with 4-HT and then fixed at 0, 48, or 72 h after removal of 4-HT from the culture medium. DAPI, nuclear staining; V5, antibody specific for V5-tagged Cas9. Scale bar, […]. In (b), at least 300 cells were counted for each sample and time point. Data represent mean±s.d. from three biological replicates. n.s., not significant (P>0.25); **P<0.001, Student's t-test. (c) Surveyor assay detection of genome modification in HEK293 cells after two cycles of transfection and 4-HT treatment (4-HT 1 and 4-HT 2). A sgRNA targeting the WAS locus was transfected first, and a sgRNA targeting the ASXL2 locus second. Arrows indicate the expected cleavage bands.
In principle, a conditional system such as iCas should allow users to generate stable cell lines and induce its activity whenever needed. […] The cell line was verified to be functional (FIG. 25a) and monitored the intracellular localization of iCas by immunofluorescence (FIG. 6a). Without 4-hydroxytamoxifen, most cells produced an iCas protein that was localized in the cytoplasm; only 15% of the cells contained nuclear-localized protein. […] The inducer was then washed away and the cells immunostained with anti-V5 antibody at 48 and 72 hours after removal of 4-hydroxytamoxifen.

[4] = test system: EMX1, TAT, and WAS genomic loci; experiment: Benchmarking of post-translational control systems by Surveyor assay and deep sequencing; type: cell-based, human
Description: Arrows indicate the expected cleavage bands.

Wnt signalling pathway = experiment: Wnt-responsive luciferase reporter assay in STF3A-TetOn cells; type: cell-based; conditions: CTNNB1-targeting sgRNA; chemical 6 hours, harvested after another 72 hours
Protocol: Cells were treated for 6 hours with the respective chemical and then harvested after another 72 hours to allow sufficient time for changes in β-catenin or luciferase protein levels.
The cells were then trypsinised and re-seeded equally into a Corning 96-well flat clear bottom white plate. Samples were assayed for luciferase activity using Dual-Glo Luciferase (Promega) according to manufacturer's instructions. All measurements were taken using the i-control software for Tecan microplate readers. All firefly luciferase measurements were normalized to the corresponding renilla luciferase readings.

TAT locus = experiment: Surveyor assay at the TAT locus in cancer cell lines; type: cell-based, human; conditions: 1 μM 4HT; MCF7, DLD1 and HCT116
Protocol: FIG. 18|Genome modification at the TAT locus in different cancer cell lines. The efficiency of iCas was tested in the breast cancer cell line MCF7, as well as in the colorectal cancer cell lines DLD1 and HCT116, the results of which are shown as gel images. Based on the Surveyor assays, genome modifications were detected after the cells were treated with 1 μM 4HT for 6 hours. The INDEL frequency increased when the treatment duration was lengthened to 8 hours for all the cell lines tested. Arrows indicate the expected cleavage bands.
(§1) The editing activity continued to increase with longer treatment durations.

PARP4 gene = experiment: Surveyor assay at PARP4 in the HEK293-iCas stable line; type: cell-based, human; conditions: 1 μM 4HT for 24 hours; after at least two weeks of passaging
Protocol: FIG. 27|Temporal switching of iCas activity. […] To assess the functionality of this cell line, a lentivirus expressing a sgRNA targeting one of the coding exons of the PARP4 gene was generated, and HEK293-iCas cells were infected the virus. After puromycin selection and continuous passaging of the cells for at least two weeks, the cells were treated with or without 1 μM 4HT for 24 hours before harvesting them for analysis using the Surveyor assay. […] When the cells are treated with 4HT, the iCas enzyme is expected to translocate into the nucleus and be able to edit the DNA (these cells are depicted as yellow). However, when the inducer has been removed for more than 72 hours, the iCas protein is expected to translocate out of the nucleus and thus no more editing will be anticipated.

CTNNB1 locus = experiment: Surveyor assay at the CTNNB1 locus in STF3A-Tet-On cells; type: cell-based
HEK293 cells = experiment: Immunohistochemical staining, nuclear localization of (ERT2)2-Cas9-(ERT2)2; type: cell-based, human; conditions: no 4-HT; 24 hours after transfection
Protocol: To verify the results from the Surveyor assays and deep sequencing experiments, immunohistochemical staining was performed to determine the subcellular localization of the three variants, all of which contained two copies of ERT2 at both termini of the enzyme ((ERT2)2-Cas9-(ERT2)2), with or without 1 μM 4-HT. 24 hours after transfection with plasmids carrying a Cas9 variant and a sgRNA targeting the EMX1, VEGFA, FANCF, WAS, or TAT genomic locus, the cells were either fixed immediately and stained with anti-V5 or were subjected to 6 h or 24 h 4-HT treatment before fixation and staining (FIG. 15). […] Most of the protein translocation occurred within the first 6 hours of 4-hydroxytamoxifen treatment.
Paraformaldehyde-fixed HEK293 cells were first incubated with blocking solution (10% FBS in 0.1M PBS) (JR Scientific Inc) for 30 minutes and then quenched with 3% hydrogen peroxide. Next, the samples were incubated for 2 hours at room temperature or 4° C. overnight with primary antibody specific against the V5 epitope tag (Life Technologies) in blocking solution. Negative controls were incubated with blocking solution without any primary antibody. Subsequently, the samples were thoroughly washed with PBS and then incubated for 1 hour at room temperature with secondary horseradish peroxidase (HRP)-conjugated antibody (GE Healthcare UK Ltd). […]

[5] = test system: known Cas9 off-target sites of the EMX1, VEGFA, FANCF, WAS, and TAT sgRNAs; experiment: Surveyor assay at known Cas9 off-target sites; type: cell-based, human
Protocol: The specificity of iCas was tested using seven distinct guide RNAs (gRNAs), the results of which are shown in three-dimensional column graphs. […] (n≥2 replicates for each on-target site; n≥3 replicates for each EMX1 off-target site; n≥1 replicate for other off-target sites.)
To assess the DNA cleavage specificity of iCas, the modification of known Cas9 off-target sites of the EMX1, VEGFA, FANCF, WAS, and TAT sgRNAs was measured.

[6] = test system: VEGFA promoter, WAS, TAT, and FANCF genes; experiment: Surveyor assay at VEGFA, WAS, TAT and FANCF genomic loci in HEK293 cells; type: cell-based, human; conditions: 1 μM 4-HT
Description: as §1

[7] = absence of 4HT, harvested 24 hours after transfection (0 hour time point)

For “variant 29: NLS-TG-ERT2-GGSPRGGS-ERT2-TPESGA-Cas9-NLS-ERT2-PAG-ERT2 (SEQ ID NO. 248)”, the “duration of 4-hydroxytamoxifen treatment at which cleavage activity appears to plateau” value (“duration … to plateau” for short) (EMX1 locus [1]; Surveyor assay) was “around 8 hours”, the “duration of 4-hydroxytamoxifen treatment after which a low level of DNA editing was revealed” value (“duration … of DNA editing was revealed” below) (EMX1 locus [2]) was 2 h and the “time at which leaky activity was first detected” value (EMX1 locus [2]) was 2 h. For the same substance, the INDEL frequency (FANCF locus; 0 nM 4HT for another 24 hours) was 3.5%, the “cleavage bands with 4HT” value (FANCF locus) was “strong cleavage bands were observed” and the INDEL frequency (FANCF locus; [7]) was 2.9%.

With “variant 30: NL-TGGGS-ERT2-PRGGS-ERT2-TPESGA-Cas9-NLS-ERT2-PAGGGS-ERT2 (SEQ ID NO. 249); hereafter referred to as iCas” the “editing of two genomic loci simultaneously” value ([3]; 12 hours of chemical treatment) was “generated INDELs at both the EMX1 and ADAR1 genomic loci”, the “editing of two genomic loci simultaneously” value ([3]; 24 hours of chemical treatment) was “produced more genome modification than at 12 hours” and the “amount of β-catenin protein relative to the original level” value (β-catenin; co-transfected with β-catenin-targeting sgRNA, Western blot) was “less than 20%”. The “transcript level of β-catenin” value (β-catenin; β-catenin-targeting sgRNA, qRT-PCR) was “significant decrease”, the “cleavage after two cycles of transfection, treated twice with the inducer” value (WAS locus and ASXL2; 1 μM 4-hydroxytamoxifen after first and second transfection) was “cleavage activity was readily observed at both targeted loci” and the “cleavage after two cycles of transfection, inducer after the first transfection only” value (WAS locus and ASXL2; 4-hydroxytamoxifen after the first but not the second transfection) was “cleavage was detected only at the WAS locus”. The “cells containing nuclear-localized protein” value (HEK293-iCas cells; 24 hour treatment with 4-hydroxytamoxifen) was 48%, the “cells containing nuclear-localized protein” value (HEK293-iCas cells; 72 hours after removal of 4-hydroxytamoxifen) was “not significantly different from that of the pre-induction state” and the “cells containing nuclear-localized protein” value (HEK293-iCas cells; without 4-hydroxytamoxifen) was 15%. For the same substance, the “switching ratio compared with intein-Cas9” value ([4]; Surveyor assay, EMX1 and WAS loci) was “significantly higher ratios than intein-Cas9”, the “induction time needed to reach the INDEL frequency of split-Cas9 after approximately 96 hours” value ([4]; deep sequencing) was 12 h and the “background activity without the inducer” value ([4]; no inducer) was “comparable levels of leakiness”. For the same substance, the switching ratio (EMX1 locus [1]; 0.25 μg plasmid) was 7.96, the switching ratio (EMX1 locus [1]; 0.5 μg plasmid) was 4.16 and the switching ratio (EMX1 locus [1]; 1 μg of plasmid) was 2.83. The “duration … to plateau” value (EMX1 locus [1]; Surveyor assay) was “around 8 hours”, the “time point at which leaky activity was observed” value (EMX1 locus [1]; without 4-hydroxytamoxifen (0 nM), Surveyor assay) was 48 h and the luciferase activity (Wnt signalling pathway) was “significant decrease in luciferase activity”. For the same substance, the “duration of 4HT treatment after which genome modifications were detected” value (TAT locus) was 6 h, the “cleavage bands with or without 4HT in the stable line” value (PARP4 gene) was “Cleavage bands (indicated by arrows) were observed for the treated cells, but not for the untreated cells” and the “duration of inducer treatment until modification of the target locus” value (CTNNB1 locus; 1 μM 4-hydroxytamoxifen or 1 μg/ml doxycycline) was no more than 6 h. For the same substance, the “cleavage bands in the absence of 4-hydroxytamoxifen” value (CTNNB1 locus; any time point) was “No cleavage bands were observed”, the “duration … of DNA editing was revealed” value (EMX1 locus [2]) was 2 h and the “time at which leaky activity was first detected” value (EMX1 locus [2]) was 16 h. The “nuclear localization in the absence of 4-hydroxytamoxifen, versus variant 27 or variant 29” value (HEK293 cells) was “significantly less nuclear localization”, the “cleavage at the two EMX1 off-target sites” value ([5]; EMX1 sgRNA, 1 μM 4-hydroxytamoxifen up to 24 hours) was “did not yield any measurable cleavage” and the “duration of 4HT treatment after which off-target effects were observed” value ([5]; gRNAs targeting VEGFA promoter first site, TAT locus, FANCF locus) was 16 h. For the same substance, the “duration of 4-hydroxytamoxifen treatment until nuclease activity, all loci tested” value [6] was no more than 4 h, the “cleavage bands with 4HT” value (FANCF locus) was “strong cleavage bands were observed” and the “cleavage band in the absence of 4HT” value (FANCF locus; no 4HT) was “no cleavage band was detected”.

For “variant 27: NLS-TGGGS-ERT2-PRGGS-ERT2-TPESGA-Cas9-NLS-ERT2-PAG-ERT2 (SEQ ID NO. 246)”, the “duration … to plateau” value (EMX1 locus [1]; Surveyor assay) was “around 8 hours”, the “duration … of DNA editing was revealed” value (EMX1 locus [2]) was 2 h and the “time at which leaky activity was first detected” value (EMX1 locus [2]) was 6 h. For the same substance, the INDEL frequency (FANCF locus; 0 nM 4HT for another 24 hours) was 7.7%, the “cleavage bands with 4HT” value (FANCF locus) was “strong cleavage bands were observed” and the INDEL frequency (FANCF locus; [7]) was 2.5%.

For “4-hydroxytamoxifen [4HT, reference compound]”, the “4HT concentration for maximum activation of the inducible genome editing system” value (EMX1 locus [1]; 10, 100, 1000 nM tested, Surveyor assay and deep sequencing) was “at least 100 nM”.

Source: patent US11261435B2, “Chemical-inducible genome engineering technology” (AGENCY FOR SCIENCE, TECHNOLOGY AND RESEARCH, priority 2015, dated 2022)
